Laboratory results reported in patent US4172148A, “Ruminant feeds containing trichloroethyl esters of essential amino acids” (E. R. Squibb & Sons, Inc., priority 1978, dated 1979).

How the values were obtained:
[1] = test system: volatile fatty acid concentrations in fistulated sheep; assay: volatile fatty acid concentrations in vivo in fistulated sheep, 227 g concentrate and 680 g alfalfa hay (Examples 5 and 8); settings: for Acetic:propionic ratio / Other acids (%) / Butyric acid (%) / Propionic acid (%) / Acetic acid (%) / Total acids: day 7
From the text: Mature sheep (wethers) fitted with permanent rumen fistulae were used to determine the effect of L-phenylalanine, 2,2,2-trichloroethyl ester on volatile fatty acid concentrations in vivo (3 wethers per treatment). The animals were individually penned and fed 227 g. of concentrate (described in Example 3) and 680 g. of alfalfa hay once daily. The test compound was admixed with the concentrate. The sheep were medicated for 7 days. Samples for analysis were obtained before (Day 0) and after treatment (Day 7) approximately 6 hours after feeding.

[2] = test system: volatile fatty acid concentrations in the in vitro rumen fermentation; assay: in vitro rumen fermentation, volatile fatty acids, high concentrate substrate, alfalfa hay:concentrate 1:3 (Examples 4 and 7); set-up: species or system sheep; settings: for Acetic acid / Acetic:propionic / Butyric acid / Propionic acid / Total acids: hay:concentrate 1:3
Experimental: A one gram sample of substrate ground through a 1 mm screen is weighed into 100 ml. lipless beakers equipped with gas-release valves. The substrate consists of alfalfa hay containing approximately 16% protein and a concentrate containing ground corn 60.7%, alfalfa meal 17.5%, molasses 10.0%, soybean meal 5.3%, wheat bran 5.0%, trace mineralized salt 1.0%, limestone 0.5% and Vitamin D 300,000 I.U./ton, mixed in the proportion 3:1. The experimental composition is added to the substrate. 25 ml. of filtered rumen fluid obtained from fasted sheep maintained on feed the same as the above mentioned substrate and 25 ml. of McDougal's buffer solution serve as the inoculum. The buffer solution is as follows:
The fermentation mixture is flushed with carbon dioxide and the vessel is capped with a gas release valve. The fermentation vessel (beaker) is placed in a water bath and incubated at 39° C.±1° for six hours. The sample is mixed every hour by shaking the beaker.
At the end of the 6-hour fermentation period the sample is strained through 4 layers of cheesecloth into a sample bottle containing 1 ml. saturated solution of mercuric chloride. The sample is frozen immediately until analyzed for the volatile fatty acids (VFA) (mg/100 ml.). Prior to analysis, each sample is acidified with 30% phosphoric acid and then analyzed by gas chromatography using a column containing 5% nonylphenoxypolyoxyethylene ethanol plus 0.5% phosphoric acid on 100-120 mesh Gas Chrom S. The acids determined are acetic, propionic, butyric, isobutyric, valeric and isovaleric acids. Total VFA is considered as the addition of these acids. The ratio of acetic: propionic (A:P) is obtained by dividing the concentration of acetic acid by that of propionic acid.
The procedure is described in Example 3. In this example, however, the substrate consisted of alfalfa hay and concentrate in the ratio of 1:3 and inoculum was obtained from sheep fed alfalfa and concentrate in the ratio of 1:3. The concentrate (Fit-N-Fresh) is commercially available from Agway, Inc. and contains grain products, plant protein products, processed grain by-products, cane molasses, minerals, vitamins and a preservative.
The 2,2,2-trichloroethyl ester of glycine was tested in vitro in a manner similar to that described in Example 4.

Br.N[C@@H](Cc1ccccc1)C(=O)OCC(Cl)(Cl)Cl [L-Phenylalanine 2,2,2-trichloroethyl ester, hydrobromide]
Acetic:propionic ratio ([1]; 200 mg/head/day, pretreatment 3.52, control day 7 3.56): 3.11
Other acids (%) ([1]; 200 mg/head/day, pretreatment 5.4, control day 7 5.5): 5.8%
Butyric acid (%) ([1]; 200 mg/head/day, pretreatment 12.8, control day 7 15.5): 15.1%
Propionic acid (%) ([1]; 200 mg/head/day, pretreatment 18.2, control day 7 17.4): 19.3%
Acetic acid (%) ([1]; 200 mg/head/day, pretreatment 63.7, control day 7 61.6): 59.7%
Total acids ([1]; 200 mg/head/day, pretreatment 657, control day 7 698): 667 mg/100 ml.
Acetic:propionic ratio ([1]; 500 mg/head/day, pretreatment 3.39, control day 7 3.56): 2.43
Other acids (%) ([1]; 500 mg/head/day, pretreatment 5.7, control day 7 5.5): 8.1%
Butyric acid (%) ([1]; 500 mg/head/day, pretreatment 12.7, control day 7 15.5): 18.0%
Propionic acid (%) ([1]; 500 mg/head/day, pretreatment 18.6, control day 7 17.4): 21.5%
Acetic acid (%) ([1]; 500 mg/head/day, pretreatment 63.1, control day 7 61.6): 52.5%
Total acids ([1]; 500 mg/head/day, pretreatment 614, control day 7 698): 624 mg/100 ml.
effect on acetic:propionic ratio (in words) ([1]; fistulated sheep, 7 days): decreased the acetic:propionic ratio
effect on proportion of propionic acid (in words) ([1]; fistulated sheep, 7 days): increased the proportion of propionic acid
Acetic acid ([2]; 0.02 mg/ml): 80 % of control
Acetic:propionic ([2]; 0.02 mg/ml): 69 % of control
Butyric acid ([2]; 0.02 mg/ml): 114 % of control
Propionic acid ([2]; 0.02 mg/ml): 116 % of control
Total acids ([2]; 0.02 mg/ml): 95 % of control
Acetic acid ([2]; 0.1 mg/ml): 76 % of control
Acetic:propionic ([2]; 0.1 mg/ml): 66 % of control
Butyric acid ([2]; 0.1 mg/ml): 113 % of control
Propionic acid ([2]; 0.1 mg/ml): 115 % of control
Total acids ([2]; 0.1 mg/ml): 92 % of control
Acetic acid ([2]; 0.2 mg/ml): 76 % of control
Acetic:propionic ([2]; 0.2 mg/ml): 65 % of control
Butyric acid ([2]; 0.2 mg/ml): 113 % of control
Propionic acid ([2]; 0.2 mg/ml): 116 % of control
Total acids ([2]; 0.2 mg/ml): 92 % of control
Acetic acid ([2]; 0.4 mg/ml): 79 % of control
Acetic:propionic ([2]; 0.4 mg/ml): 65 % of control
Butyric acid ([2]; 0.4 mg/ml): 116 % of control
Propionic acid ([2]; 0.4 mg/ml): 120 % of control
Total acids ([2]; 0.4 mg/ml): 96 % of control
Acetic acid ([2]; 1.0 mg/ml): 76 % of control
Acetic:propionic ([2]; 1.0 mg/ml): 64 % of control
Butyric acid ([2]; 1.0 mg/ml): 112 % of control
Propionic acid ([2]; 1.0 mg/ml): 119 % of control
Total acids ([2]; 1.0 mg/ml): 92 % of control
effect on acetic:propionic ratio (in words) ([2]; high concentrate substrate): decreasing the acetic:propionic ratio
effect on propionic acid concentration (in words) ([2]; high concentrate substrate): effective in increasing the propionic acid concentration
